Experiments:
Parameters in all cases: key: 0: normal development; 1: Less damaged; 2: Slightly damaged; 3: Moderately damaged; 4: Severely damaged; 5: All killed
[1] = test system: livid amaranth; assay: Foliar spread test for upland field; format: in vivo, Amaranthus lividus; details: foliar spray 500 ppm, 3 weeks, rank vs non-treated
Summary of the method: (§1)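 Seeds are planted in pots of volcanic ash soil and grown roughly 2 weeks under glass. Foliage then receives a uniform spray of compound at 500 ppm in water with 0.5% surfactant. Herbicidal damage is rated 0–5 after 3 weeks at an average 25° C.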

[2] = test system: annual bluegrass; assay: Foliar spread test for upland field; format: in vivo, Poa annua; details: foliar spray 500 ppm, 3 weeks, rank vs non-treated
Summary of the method: as §1

[3] = test system: bulrush; assay: Herbicidal test for paddy field; format: in vivo, Scrips juncoides; details: paddy field pot, 500 g/ha dropwise at 1.5 leaf stage of barnyardgrass, 3 weeks, rank vs non-treated
Summary of the method: (§2)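 Post-flooding water application of 500 g/ha, given at 1.5-leaf barnyardgrass, to plants in Ube alluvial soil held under 3 cm of water. Ratings of 0 to 5 relative to untreated controls were made after three weeks in a glasshouse.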

[4] = test system: wheat; assay: Foliar spread test for upland field; format: in vivo; details: foliar spray 500 ppm, 3 weeks, rank vs non-treated
Summary of the method: (§3)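 Two-week-old glasshouse seedlings on volcanic ash soil were treated by foliar spray at 500 ppm, with 0.5% surfactant in the diluent. Effects were graded visually after three weeks, from 0 for no injury to 5 for complete kill.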

[5] = test system: sugar beat; assay: Foliar spread test for upland field; format: in vivo; details: foliar spray 500 ppm, 3 weeks, rank vs non-treated
Summary of the method: as §3

[6] = test system: corn; assay: Foliar spread test for upland field; format: in vivo; details: foliar spray 500 ppm, 3 weeks, rank vs non-treated
Summary of the method: as §3

[7] = test system: soybean; assay: Foliar spread test for upland field; format: in vivo; details: foliar spray 500 ppm, 3 weeks, rank vs non-treated
Summary of the method: as §3

[8] = test system: cotton; assay: Foliar spread test for upland field; format: in vivo; details: foliar spray 500 ppm, 3 weeks, rank vs non-treated
Summary of the method: as §3

[9] = test system: solgum; assay: Foliar spread test for upland field; format: in vivo; details: foliar spray 500 ppm, 3 weeks, rank vs non-treated
Summary of the method: as §3

[10] = test system: young rice plant; assay: Herbicidal test for paddy field; format: in vivo; details: paddy field pot, 500 g/ha dropwise at 1.5 leaf stage of barnyardgrass, 3 weeks, rank vs non-treated
Summary of the method: as §2

[11] = test system: morning glory; assay: Foliar spread test for upland field; format: in vivo, Ipomoea spps.; details: foliar spray 500 ppm, 3 weeks, rank vs non-treated
Summary of the method: as §1

[12] = test system: Large crabgrass; assay: Foliar spread test for upland field; format: in vivo, Digitaria adscendens; details: foliar spray 500 ppm, 3 weeks, rank vs non-treated
Summary of the method: as §1

[13] = test system: barnyardgrass; assay: Foliar spread test for upland field; format: in vivo, Echinochloa crusgalli; details: foliar spray 500 ppm, 3 weeks, rank vs non-treated
Text: (§4) (0: normal development, 1: Less damaged, 2: Slightly damaged, 3: Moderately damaged, 4: Severely damaged, 5: All killed).
Wagner pots, each having an area of 1/5000 are, were packed with volcanic ash soil and then each seed of corn, soybean, cotton, wheat, solgum, sugar beat, Large crabgrass, barnyardgrass, green foxtail, blackgrass, annual bluegrass, common lambsquartes, livid amaranth, velvetleaf and morning glory was planted, covered with soil and grown in a glass house at an average temperature of […] for about 2 weeks.
Each wettable powder of the desired compounds (I) shown in Table 1 prepared in accordance with Example 2 was diluted to 500 ppm with water containing a surfactant (0.5%) and then uniformly sprayed on the above respective plants.
After these plants were controlled in a glass house at an average temperature of 25° C. for 3 weeks, the herbicidal effects thereof were investigated.
The herbicidal effects were evaluated according to the evaluation method described in the above (1).

[14] = test system: green foxtail; assay: Foliar spread test for upland field; format: in vivo, Setaria viridis; details: foliar spray 500 ppm, 3 weeks, rank vs non-treated
Summary of the method: as §1

[15] = test system: common lambsquartes; assay: Foliar spread test for upland field; format: in vivo, Chenopodium album; details: foliar spray 500 ppm, 3 weeks, rank vs non-treated
Summary of the method: as §1

[16] = test system: velvetleaf; assay: Foliar spread test for upland field; format: in vivo, Abutilon theophrasti; details: foliar spray 500 ppm, 3 weeks, rank vs non-treated
Summary of the method: as §1

[17] = test system: monochoria; assay: Herbicidal test for paddy field; format: in vivo, Monochoria vaginalis; details: paddy field pot, 500 g/ha dropwise at 1.5 leaf stage of barnyardgrass, 3 weeks, rank vs non-treated
Summary of the method: as §2

[18] = test system: flat sedge; assay: Herbicidal test for paddy field; format: in vivo, Cyperus serotinus; details: paddy field pot, 500 g/ha dropwise at 1.5 leaf stage of barnyardgrass, 3 weeks, rank vs non-treated
Description: Wagner pots, each having an area of 1/5000 are, were packed with Ube soil (alluvial soil) and planted with seeds or tubers of young rice plant, barnyardgrass, bulrush, flat sedge and monochoria. Then, the pots were filled with water to a depth of 3 cm.
Each wettable powder of the desired compounds (I) shown in Table 1 prepared in accordance with Example 2 was diluted with water containing a surfactant (0.05%) and subjected to dropwise addition treatment by using pipet so that an effective concentration of the compound (I) in each herbicide became 500 g/ha at 1.5 leaf stage of barnyardgrass.
These plants were controlled in a glass house at an average temperature of 25° C. for 3 weeks, and then herbicidal effects thereof were investigated.
The herbicidal effects are evaluated according to the following 6 ranks as compared with non-treated district.
as §4

[19] = test system: barnyardgrass; assay: Herbicidal test for paddy field; format: in vivo, Echinochloa crusgalli; details: paddy field pot, 500 g/ha dropwise at 1.5 leaf stage of barnyardgrass, 3 weeks, rank vs non-treated
Summary of the method: as §2

[20] = test system: blackgrass; assay: Foliar spread test for upland field; format: in vivo, Alopecurus aegualis; details: foliar spray 500 ppm, 3 weeks, rank vs non-treated
Summary of the method: as §1

**Q.** What does the source list for `CCCC(Oc1cccc(C#N)c1)c1nc2cc(Cl)ccc2o1` (centres unmarked) [Compound 457]?
**A.** Effects Livid amaranth [1]: 4; Effects Annual bluegrass [2]: 2; Effect Bulrush [3]: 4; Effects Wheat [4]: 2; Effects Sugar beat [5]: 3; Effects Corn [6]: 1; Effects Soybean [7]: 3; Effects Cotton [8]: 3; Effects Solgum [9]: 2; Effect Young rice plant [10]: 1; Effects Morning glory [11]: 3; Effects Large crabgrass [12]: 2; Effects Barnyardgrass [13]: 2; Effects Green foxtail [14]: 3; Effects Common lambsquarters [15]: 3; Effects Velvetleaf [16]: 3; Effect Monochoria [17]: 4; Effect Flat sedge [18]: 4; Effect Barnyardgrass [19]: 4; Effects Blackgrass [20]: 2

Source: US6706664B1, “Benzoxazole compounds, process for the preparation thereof and herbicides” (UBE Industries, Ltd., priority 1999, dated 2004)
